# In paper PMC5029711, “Functional characterization and anti-cancer action of the clinical phase II cardiac Na^+/K^+ ATPase inhibitor istaroxime: in vitro and in vivo properties and cross talk with the membrane androgen receptor” (Oncotarget, 2016):
# pIC50: −log10 of the molar value.
# Target: T1, Na^+/K^+ ATPase
# T1 construct: gene ATP1A1; enzyme isolated from porcine cerebral cortex
# Assay: ATPase enzymatic activity assay (Sigma) with isolated porcine cerebral cortex enzyme
# Assay type: biochemical, Sus scrofa
compound,measurement,value
"C[C@]12CCC(=NOCCN)C[C@@H]1C(=O)C[C@@H]1[C@@H]2CC[C@]2(C)C(=O)CC[C@@H]12 [istaroxime, (E, Z) 3-(2-aminoethoxyimino)-5α-androstane-6, 17-trione]",pIC50,6.39
